Measurements reported in patent US5194586A, “Anti-ATLA antibody binding peptides” (Kuraray Co., Ltd., priority 1989, dated 1993).
Several values for one entry are separate records, joined by “and”; a condition that tells them apart may be missing. Identical values can stand only once.

System: anti-ATLA antibody
Assay: ELISA of Example 24: single peptides and 1:1 mixture, dried stored cups
Type: binding, human
Settings: for OD492: listed as Ex. 9
Description: Each serum specimen was assayed for the presence of the anti-ATLA antibody by the following ELISA in which an absorbance was measured.
The peptide prepared in Example 1 or the peptide prepared in Reference Example 9 were each dissolved in 0.01M carbonate buffer (pH 9.5) to prepare a solution containing each peptide. In addition, a solution containing both peptides was prepared by mixing the above two solutions at a concentration ratio of 1:1 (the former:the latter). Each 100 μl of the resulting peptide solutions was added to a cup for ELISA made of polystyrene (the same as mentioned above) and the mixture was allowed to stand at 4° C. overnight so that the peptide is coated on the cup. After removing the peptide solution in these cups, to each cup was added PBS (200 μl ) containing 20% by volume of normal goat serum and the mixture was allowed to stand at room temperature for 3 hours to block non-specific protein binding sites. After removing the blocking solution in the cups, the cups were dried and stored at 4° C.
Using PBS containing 10% by volume of normal goat serum and 0.05% by volume of Tween 20 as a diluent, the diluent and each serum specimen (15 specimens of the ATLV-carrier serum and 15 specimens of the normal human serum) was mixed at a ratio of 20:1 (diluent:specimen; v/v) and each 100 μl of the resulting diluted serums was added to above each assay cup. After incubation at 37° C. for 1 hour, the cups were washed with PBS containing 0.05% by volume of Tween 20 (×3) and then with PBS (×1).
To each resulting assay cup was added PBS containing horseradish peroxidase conjugated goat anti-human IgG antibody (diluted at an optimal concentration with PBS containing 10% by volume of normal goat serum and 0.2% by volume of Tween 20; 100 μl ). After incubation at 37° C. for 30 minutes, these cups were washed with PBS containing 0.05% by volume of Tween 20 (×3) and then with PBS (×1). […] After the mixtures were allowed to stand at room temperature for 15 minutes, to each mixture was added 1N sulfuric acid (100 μl) to stop the reaction and an absorbance at 492 nm (OD492) of each reaction solution was measured.
Cutoff value was determined using the OD492 values of the fifteen normal human serums and used for determination as to whether the specimens are positive or negative for the anti-ATLA antibody. The cutoff value was calculated by the equation: cutoff value = ((mean value of OD492 values of the normal human serum) +2SD). When the presence of the anti-ATLA antibody in each serum specimen was assayed using this cutoff value, all ATLV-carrier serums were determined to be positive and all normal human serums were determined to be negative.

With “Example 9: peptide (I), X is -Lys-Lys-Lys-, A is the env peptide fragment (A-3); SEQ ID NO: 14 (KKKFLNTEPSQLPPTAPPLLPHSNLDHI)” the OD492 (ATLV-carrier serum, individual specimens No. 1-15, diluent:specimen 20:1) was 0.873 and 0.973 and 1.405 and 0.099 and 1.623 and 1.437 and 0.137 and 0.088 and 0.111 and 1.029 and 1.071 and 1.156 and 1.061 and 0.549 and 1.478, the Cutoff value (mean OD492 of the normal human serum + 2SD) was 0.158 and the “Mean OD492” value (mean of the fifteen normal human serums) was 0.096. The OD492 (normal human serum, individual specimens No. 1-15) was 0.078 and 0.062 and 0.040 and 0.089 and 0.133 and 0.103 and 0.099 and 0.083 and 0.151 and 0.065 and 0.093 and 0.097 and 0.100 and 0.094 and 0.154.
